Experiment: xn = mol fraction of the nth substance listed
Conditions: 100 kPa, Liquid; for viscosity: Falling or rolling sphere viscometry; for speed of sound: Frequency=3 MHz, Single path-length method; for mass density: Vibrating tube method

CCn1cc[n+](C)c1.O=S(=O)([O-])C(F)(F)F [1-ethyl-3-methylimidazolium trifluoromethanesulfonate] + CC#N
Conditions	mass density [kg/m3]	speed of sound [m/s]	viscosity [mPa·s]
298.15 K, x1 = 0.1026	964.8	1309.2	0.85
298.15 K, x1 = 0.2053	1080.98	1337.4	1.88
298.15 K, x1 = 0.3044	1158.48	1360.9	2.99
298.15 K, x1 = 0.3948	1210.19	1377.9	4.51
298.15 K, x1 = 0.498	1256.19	1394.4	7.44
298.15 K, x1 = 0.595	1289.82	1408	10.9
298.15 K, x1 = 0.6936	1317.8	1418.6	15.92
298.15 K, x1 = 0.801	1342.54	1427.1	24.05
298.15 K, x1 = 0.9005	1362.36	1432.6	33.72
298.15 K, x1 = 1	1379.91	1436	45.67
303.15 K, x1 = 0.1026	959.72	1292	0.8
303.15 K, x1 = 0.2053	1076.24	1321.9	1.82
303.15 K, x1 = 0.3044	1153.77	1346.7	2.74
303.15 K, x1 = 0.3948	1205.75	1364.5	4.13
303.15 K, x1 = 0.498	1251.68	1381.5	6.64
303.15 K, x1 = 0.595	1285.38	1395.5	9.46
303.15 K, x1 = 0.6936	1313.46	1406.6	13.8
303.15 K, x1 = 0.801	1338.3	1415.2	20.32
303.15 K, x1 = 0.9005	1358.19	1421.3	27.94
303.15 K, x1 = 1	1375.71	1425.4	38.31
308.15 K, x1 = 0.1026	954.64	1274.9	0.75
308.15 K, x1 = 0.2053	1071.2	1306.5	1.65
308.15 K, x1 = 0.3044	1149.07	1332.5	2.52
308.15 K, x1 = 0.3948	1200.93	1351.3	3.76
308.15 K, x1 = 0.498	1247.19	1368.7	5.95
308.15 K, x1 = 0.595	1280.97	1383.2	8.41
308.15 K, x1 = 0.6936	1309.13	1394.7	12.08
308.15 K, x1 = 0.801	1334.18	1403.4	17.54
308.15 K, x1 = 0.9005	1354.05	1409.7	23.87
308.15 K, x1 = 1	1371.51	1414.3	32.38
313.15 K, x1 = 0.1026	949.54	1257.9	0.72
313.15 K, x1 = 0.2053	1066.32	1291.1	1.54
313.15 K, x1 = 0.3044	1144.37	1318.3	2.34
313.15 K, x1 = 0.3948	1196.39	1338.2	3.46
313.15 K, x1 = 0.498	1242.71	1356	5.37
313.15 K, x1 = 0.595	1276.68	1371.1	7.51
313.15 K, x1 = 0.6936	1304.82	1382.9	10.66
313.15 K, x1 = 0.801	1330.05	1391.6	15.27
313.15 K, x1 = 0.9005	1349.89	1398.1	20.58
313.15 K, x1 = 1	1367.36	1403	27.68
318.15 K, x1 = 0.1026	944.58	1241	0.68
318.15 K, x1 = 0.2053	1061.52	1275.8	1.42
318.15 K, x1 = 0.3044	1139.57	1304.3	2.16
318.15 K, x1 = 0.3948	1191.77	1325.1	3.17
318.15 K, x1 = 0.498	1238.2	1343.4	4.87
318.15 K, x1 = 0.595	1272.32	1359	6.75
318.15 K, x1 = 0.6936	1300.45	1371.3	9.46
318.15 K, x1 = 0.801	1325.89	1380.2	13.39
318.15 K, x1 = 0.9005	1345.74	1387.1	17.89
318.15 K, x1 = 1	1363.21	1392.7	23.86
323.15 K, x1 = 0.1026	939.47	1224.1	0.65
323.15 K, x1 = 0.2053	1056.45	1260.7	1.38
323.15 K, x1 = 0.3044	1134.77	1290.5	2.01
323.15 K, x1 = 0.3948	1187.31	1312.2	2.91
323.15 K, x1 = 0.498	1233.78	1330.9	4.43
323.15 K, x1 = 0.595	1267.96	1347.1	5.96
323.15 K, x1 = 0.6936	1296.17	1359.7	8.27
323.15 K, x1 = 0.801	1321.8	1368.6	11.66
323.15 K, x1 = 0.9005	1341.58	1375.7	15.49
323.15 K, x1 = 1	1359.07	1381.7	20.75

CCn1cc[n+](C)c1.O=S(=O)([O-])C(F)(F)F [1-ethyl-3-methylimidazolium trifluoromethanesulfonate] + C[S+](C)[O-]
Conditions	mass density [kg/m3]	speed of sound [m/s]	viscosity [mPa·s]
298.15 K, x1 = 0.1068	1168.75	1488	3.65
298.15 K, x1 = 0.2015	1216.25	1477.1	5.35
298.15 K, x1 = 0.3077	1256.63	1468.6	7.89
298.15 K, x1 = 0.4023	1284.76	1462.5	11.82
298.15 K, x1 = 0.4933	1306.53	1456.5	16.26
298.15 K, x1 = 0.6022	1328.03	1453	21.05
298.15 K, x1 = 0.6993	1344	1449.9	26.12
298.15 K, x1 = 0.7929	1357.15	1445.6	31.96
298.15 K, x1 = 0.9008	1370.28	1441.2	38.88
298.15 K, x1 = 1	1379.91	1436	45.67
303.15 K, x1 = 0.1068	1164	1472.7	3.26
303.15 K, x1 = 0.2015	1211.78	1462.7	4.72
303.15 K, x1 = 0.3077	1252.35	1454.9	6.9
303.15 K, x1 = 0.4023	1280.52	1449.4	10.2
303.15 K, x1 = 0.4933	1302.34	1443.8	13.93
303.15 K, x1 = 0.6022	1323.93	1440.6	17.95
303.15 K, x1 = 0.6993	1339.92	1437.8	22.18
303.15 K, x1 = 0.7929	1353.08	1433.9	27.03
303.15 K, x1 = 0.9008	1366.19	1430	32.74
303.15 K, x1 = 1	1375.71	1425.4	38.31
308.15 K, x1 = 0.1068	1159.28	1457.5	2.94
308.15 K, x1 = 0.2015	1207.5	1448.3	4.2
308.15 K, x1 = 0.3077	1248.17	1441.2	6.08
308.15 K, x1 = 0.4023	1276.4	1436.4	8.91
308.15 K, x1 = 0.4933	1298.26	1431.3	12.06
308.15 K, x1 = 0.6022	1319.96	1428.4	15.48
308.15 K, x1 = 0.6993	1335.83	1425.8	19.05
308.15 K, x1 = 0.7929	1349.06	1422.3	23.08
308.15 K, x1 = 0.9008	1362.09	1418.7	27.81
308.15 K, x1 = 1	1371.51	1414.3	32.38
313.15 K, x1 = 0.1068	1154.49	1442.4	2.66
313.15 K, x1 = 0.2015	1203.23	1434	3.76
313.15 K, x1 = 0.3077	1243.91	1427.7	5.42
313.15 K, x1 = 0.4023	1272.21	1423.5	7.85
313.15 K, x1 = 0.4933	1294.19	1418.8	10.52
313.15 K, x1 = 0.6022	1315.98	1416.5	13.47
313.15 K, x1 = 0.6993	1331.89	1414	16.52
313.15 K, x1 = 0.7929	1345.04	1410.8	19.91
313.15 K, x1 = 0.9008	1358.06	1407.4	23.88
313.15 K, x1 = 1	1367.36	1403	27.68
318.15 K, x1 = 0.1068	1149.74	1425.5	2.42
318.15 K, x1 = 0.2015	1198.95	1419.8	3.39
318.15 K, x1 = 0.3077	1239.74	1414.3	4.85
318.15 K, x1 = 0.4023	1268.06	1410.8	6.96
318.15 K, x1 = 0.4933	1290.23	1406.5	9.26
318.15 K, x1 = 0.6022	1312.02	1404.5	11.82
318.15 K, x1 = 0.6993	1327.93	1401.9	14.45
318.15 K, x1 = 0.7929	1341	1399.5	17.32
318.15 K, x1 = 0.9008	1353.95	1396.5	20.68
318.15 K, x1 = 1	1363.21	1392.7	23.86
323.15 K, x1 = 0.1068	1144.99	1410.4	2.22
323.15 K, x1 = 0.2015	1194.68	1405.7	3.08
323.15 K, x1 = 0.3077	1235.66	1401	4.37
323.15 K, x1 = 0.4023	1263.96	1398.1	6.22
323.15 K, x1 = 0.4933	1286.19	1394.3	8.23
323.15 K, x1 = 0.6022	1307.97	1392.7	10.45
323.15 K, x1 = 0.6993	1323.95	1390.7	12.72
323.15 K, x1 = 0.7929	1337.02	1388.2	15.19
323.15 K, x1 = 0.9008	1349.9	1385.5	18.05
323.15 K, x1 = 1	1359.07	1381.7	20.75

From the NIST ThermoML archive (doi:10.1021/acs.jced.7b00429)
